Measurements reported in paper PMC3138742 (PLoS ONE, 2011).

Columns and labels:
[1] = test system: phosphorylation of EGFR and downstream pathways in NCI-H1975 cells; assay: Western blot of EGF-induced phosphorylation; type: cell-based, human
Description: (§1) The tyrosine kinase activities were determined using enzyme-linked immunosorbant assay (ELISA). The serine/threonine kinase activities were detected by Caliper Mobility Shift Assay on EZ Reader (Caliper Life Sciences, MA) according to the instruction.
(§2) Cell viability was determined using sulforhodamine B assay. IC50 values were determined based on the results of three independent experiments. […] Whole-cell lysates were assayed for total EGFR and phosphorylation of EGFR by immunoblotting. […] Cell viability was determined using sulforhodamine B assay.

[2] = test system: EGFR phosphorylation in NIH3T3-EGFR T790M/L858R cells; assay: Western blot of EGFR phosphorylation; type: cell-based; conditions: 6 h, immunoblotting
Description: as §2

[3] = test system: EGFR and ErbB2 phosphorylation in SK-OV-3 xenograft tumors; assay: Pharmacodynamic effect in tumor extracts (Western blot); type: in vivo, nude mice; conditions: SK-OV-3 tumors, single dose 100 mg/kg
Description: Tumors were harvested at indicated times (n = 3 per time point) after treatment, immediately frozen in liquid nitrogen, and then homogenized in 500 µL protein extraction solutions (SBS Genetech, Shanghai, China). Tumor extracts were subjected to SDS-PAGE followed by immunoblotting.
Body weights of the nude mice were measured concurrently (B). […] Tumors were harvested at the indicated times after treatment and immediately frozen in liquid nitrogen. Western blot analysis was performed to determine the levels of phosphorylated EGFR and ErbB2.

[4] = test system: NIH3T3 parental cells; assay: Cell proliferation SRB assay; type: cell-based; conditions: 72 h, compared with NIH3T3-EGFR T790M/L858R
Source text: SK-OV-3, BT474, MDA-MB-468, Calu-3, A-549, NCI-H23, NCI-H1975 and NIH3T3 cells were obtained from the American Type Culture Collection (Rockville, MD). HO-8910 cells were obtained from the cell bank of the Chinese Academy of Sciences. MCF-7 cells were obtained from the Japanese Foundation of Cancer Research. NIH3T3 cells that overexpressed EGFR T790M/L858R mutant (NIH3T3-EGFR T790M/L858R) were constructed and maintained in our laboratory. All cell lines were maintained in strict accordance with the supplier's instructions and established procedures.
as §2, with “immunoblotting. A representative anti-GAPDH immunoblot is shown as a loading control.” for “immunoblotting.”
Cell proliferation was evaluated using the SRB (Sulforhodamine B) assay as previously described. Briefly, cells were seeded into 96-well plates and grown for 24 h. […] After cells were air-dried, protein-bound dye was dissolved in 150 μL of 10 mmol/L Tris base for 5 min and measured at 515 nm using a multiwell spectrophotometer (VERSAmax, Molecular Devices). […] The IC50 value was obtained by the Logit method and was determined from the results of at least 3 independent tests.

[5] = target: ErbB2 (Homo sapiens, UniProt P04626); assay: Rapid dilution irreversibility experiment; type: biochemical; design: The kinase domain of EGFR, ErbB-2, IGF1R, VEGFR2, FGFR1, PDGFRα, c-Src, c-Met, RON, c-Kit, EphA2 and EphB2 were expressed; made in house; conditions: preincubated 30 min at 100-fold IC50, diluted 100-fold, sampled 180 minutes
ErbB2, sequence (P04626 720-987 limits assumed): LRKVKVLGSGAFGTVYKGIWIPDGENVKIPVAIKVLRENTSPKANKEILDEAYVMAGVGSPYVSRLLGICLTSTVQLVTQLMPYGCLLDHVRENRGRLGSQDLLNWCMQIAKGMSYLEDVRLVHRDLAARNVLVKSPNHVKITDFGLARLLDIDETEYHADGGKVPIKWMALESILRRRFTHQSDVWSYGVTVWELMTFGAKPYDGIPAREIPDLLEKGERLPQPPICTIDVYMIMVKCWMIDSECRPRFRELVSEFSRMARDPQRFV
Description: (§3) The microplate was placed in the EZ Reader (Caliper Life Sciences, MA) and wells were repeatedly sampled for 180 minutes.
(§4) To verify this, we determined the reversibility of EGFR and ErbB2 binding using a dilution method. […] After incubating, the enzyme/inhibitor mixture is diluted 100-fold (i.e., to normal reaction conditions), reaction buffer plus ATP and substrate are added, and receptor kinase activity is measured continuously. In general, a reversible inhibitor dissociates quickly, allowing immediate recovery of enzymatic activity, whereas a slowly reversible inhibitor allows a gradual increase in activity. In contrast, an irreversible inhibitor prevents recovery of enzymatic activity.

[6] = target: EGFR (Homo sapiens, UniProt P00533); assay: Rapid dilution irreversibility experiment; type: biochemical; design: The kinase domain of EGFR, ErbB-2, IGF1R, VEGFR2, FGFR1, PDGFRα, c-Src, c-Met, RON, c-Kit, EphA2 and EphB2 were expressed; made in house; conditions: preincubated 30 min at 100-fold IC50, diluted 100-fold, sampled 180 minutes
EGFR, sequence (P00533 712-979 limits assumed): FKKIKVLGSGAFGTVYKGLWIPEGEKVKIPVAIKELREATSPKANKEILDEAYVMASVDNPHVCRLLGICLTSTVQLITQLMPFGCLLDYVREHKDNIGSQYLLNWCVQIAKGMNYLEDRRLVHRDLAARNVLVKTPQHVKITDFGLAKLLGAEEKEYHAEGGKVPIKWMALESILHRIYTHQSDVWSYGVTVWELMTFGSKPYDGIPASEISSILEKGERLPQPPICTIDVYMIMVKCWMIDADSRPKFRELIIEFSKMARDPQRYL
Description: as §3, §4

[7] = test system: NIH3T3-EGFR T790M/L858R cells; assay: Cell proliferation SRB assay; type: cell-based; conditions: 72 h
Description: as §1, §2

[8] = Pharmacokinetics after single oral dose; conditions: rat, in vivo; rats, single oral dose 90 mg/kg; unpublished data

## C=CC(=O)Nc1ccc2ncnc(Nc3ccc(OCc4cccc(F)c4)c(Cl)c3)c2c1 [AST1306]
[1]
  inhibition of phosphorylation of EGFR and downstream pathways: blocked phosphorylation of EGFR and downstream pathways
[2]
  inhibition of EGFR phosphorylation: effectively inhibited EGFR phosphorylation
[3]
  time to evident inhibition of EGFR and ErbB2 activation in tumors: ≤ 2 h
[4]
  inhibition of cell growth: much less potent
[5]
  recovery of ErbB2 enzymatic activity after dilution: virtually no EGFR or ErbB2 activity was recovered
[6]
  recovery of EGFR enzymatic activity after dilution: virtually no EGFR or ErbB2 activity was recovered
[7]
  inhibition of cell growth: significant, concentration-dependent inhibition
[8]
  half-life: < 3.6 h
